Results from patent US6914045B2, “Glycopeptide antibiotics” (Wyeth Holdings Corporation, priority 2001, dated 2005).
Converted amounts (≈) assume the structure as drawn.

Tests used:
Test in all cases: in vitro antibacterial evaluation, MIC by broth dilution
Assay type in all cases: cell-based
Escherichia coli = details: 18 hours at 35° C.
Summary of the method: (§1)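 Broth dilution per NCCLS M7-A2 in Mueller-Hinton II medium, inoculum 5×10^5 CFU/mL, antibiotic range 64-0.06 μg/mL. MIC taken as lowest concentration inhibiting growth; Gram-positive panel includes recent clinical isolates resistant to methicillin, penicillin and/or vancomycin.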

Staphylococcus sp. = details: broth dilution, 18 hours at 35° C.
Summary of the method: as §1

Enterococcus sp. = details: broth dilution, 18 hours at 35° C.
Summary of the method: as §1

Streptococcus sp. = details: broth dilution, 18 hours at 35° C.
Summary of the method: as §1

MIC Escherichia coli (ATCC 25922) (Escherichia coli; strain ATCC 25922): 32 µg/mL (≈ 22 µM)
MIC Escherichia coli (GC 4559) (Escherichia coli; strain GC 4559): 32 µg/mL (≈ 22 µM)
MIC Escherichia coli (GC 4560) (Escherichia coli; strain GC 4560): 4 µg/mL (≈ 2.75 µM)
MIC Staphylococcus aureus (ATCC 29213) (Staphylococcus sp.): 2 µg/mL (≈ 1.37 µM)
MIC Staphylococcus aureus (GC 1131) (Staphylococcus sp.): 4 µg/mL (≈ 2.75 µM)
MIC Staphylococcus aureus (GC 3051) (Staphylococcus sp.): 2 µg/mL (≈ 1.37 µM)
MIC Staphylococcus aureus (GC 3053) (Staphylococcus sp.): 2 µg/mL (≈ 1.37 µM)
MIC Staphylococcus aureus (GC 4541) (Staphylococcus sp.): 2 µg/mL (≈ 1.37 µM)
MIC Staphylococcus aureus (GC 4542) (Staphylococcus sp.): 2 µg/mL (≈ 1.37 µM)
MIC Staphylococcus aureus (GC 4544) (Staphylococcus sp.): 4 µg/mL (≈ 2.75 µM)
MIC Staphylococcus aureus (GC 4545) (Staphylococcus sp.): 2 µg/mL (≈ 1.37 µM)
MIC Staphylococcus aureus (GC 1131) (Staphylococcus sp.; inoculum 5×10^5 CFU/mL, strain GC 1131): 4 µg/mL (≈ 2.75 µM)
MIC Staphylococcus aureus (ATCC 29213) (Staphylococcus sp.; strain ATCC 29213): 2 µg/mL (≈ 1.37 µM)
MIC Staphylococcus aureus (GC 3051) (Staphylococcus sp.; strain GC 3051): 2 µg/mL (≈ 1.37 µM)
MIC Staphylococcus aureus (GC 3053) (Staphylococcus sp.; strain GC 3053): 2 µg/mL (≈ 1.37 µM)
MIC Staphylococcus aureus (GC 4541) (Staphylococcus sp.; strain GC 4541): 2 µg/mL (≈ 1.37 µM)
MIC Staphylococcus aureus (GC 4542) (Staphylococcus sp.; strain GC 4542): 2 µg/mL (≈ 1.37 µM)
MIC Staphylococcus aureus-SMITH (GC 4543) (Staphylococcus sp.; strain GC 4543): 2 µg/mL (≈ 1.37 µM)
MIC Staphylococcus aureus (GC 4544) (Staphylococcus sp.; strain GC 4544): 4 µg/mL (≈ 2.75 µM)
MIC Staphylococcus aureus (GC 4545) (Staphylococcus sp.; strain GC 4545): 2 µg/mL (≈ 1.37 µM)
MIC Coagulase Negative Staphylococcus (GC 4547) (Staphylococcus sp.; strain GC 4547): 4 µg/mL (≈ 2.75 µM)
MIC Coagulase Negative Staphylococcus (GC 4548) (Staphylococcus sp.; strain GC 4548): 2 µg/mL (≈ 1.37 µM)
MIC Coagulase Negative Staphylococcus (GC 4549) (Staphylococcus sp.; strain GC 4549): 2 µg/mL (≈ 1.37 µM)
MIC Coagulase Negative Staphylococcus (GC 4551) (Staphylococcus sp.; strain GC 4551): 4 µg/mL (≈ 2.75 µM)
MIC Coagulase Negative Staphylococcus (GC 6257) (Staphylococcus sp.; strain GC 6257): 2 µg/mL (≈ 1.37 µM)
MIC Staphylococcus aureus-SMITH (GC 4543) (Staphylococcus sp.; strain SMITH GC 4543): 2 µg/mL (≈ 1.37 µM)
MIC Enterococcus avium (GC 4558) (Enterococcus sp.; Enterococcus avium (GC 4558)): 4 µg/mL (≈ 2.75 µM)
MIC Enterococcus faecalis (ATCC 29212) (Enterococcus sp.; Enterococcus faecalis (ATCC 29212)): 4 µg/mL (≈ 2.75 µM)
MIC Enterococcus faecalis (GC 2242) (Enterococcus sp.; Enterococcus faecalis (GC 2242)): 4 µg/mL (≈ 2.75 µM)
MIC Enterococcus faecalis (GC 2691) (Enterococcus sp.; Enterococcus faecalis (GC 2691)): 4 µg/mL (≈ 2.75 µM)
MIC Enterococcus faecalis (GC 3059) (Enterococcus sp.; Enterococcus faecalis (GC 3059)): 4 µg/mL (≈ 2.75 µM)
MIC Enterococcus faecalis (GC 4552) (Enterococcus sp.; Enterococcus faecalis (GC 4552)): 4 µg/mL (≈ 2.75 µM)
MIC Enterococcus faecalis (GC 4553) (Enterococcus sp.; Enterococcus faecalis (GC 4553)): 4 µg/mL (≈ 2.75 µM)
MIC Enterococcus faecalis (GC 4554) (Enterococcus sp.; Enterococcus faecalis (GC 4554)): 4 µg/mL (≈ 2.75 µM)
MIC Enterococcus faecalis (GC 6189) (Enterococcus sp.; Enterococcus faecalis (GC 6189)): 4 µg/mL (≈ 2.75 µM)
MIC Enterococcus faecium (GC 2243) (Enterococcus sp.; Enterococcus faecium (GC 2243)): 4 µg/mL (≈ 2.75 µM)
MIC Enterococcus faecium (GC 4556) (Enterococcus sp.; Enterococcus faecium (GC 4556)): 4 µg/mL (≈ 2.75 µM)
MIC Enterococcus faecium (GC 4557) (Enterococcus sp.; Enterococcus faecium (GC 4557)): 4 µg/mL (≈ 2.75 µM)
MIC Enterococcus faecalis (ATCC 29212) (Enterococcus sp.; strain ATCC 29212): 4 µg/mL (≈ 2.75 µM)
MIC Enterococcus faecalis (GC 2242) (Enterococcus sp.; strain GC 2242): 4 µg/mL (≈ 2.75 µM)
MIC Enterococcus faecium (GC 2243) (Enterococcus sp.; strain GC 2243): 4 µg/mL (≈ 2.75 µM)
MIC Enterococcus faecalis (GC 2691) (Enterococcus sp.; strain GC 2691): 4 µg/mL (≈ 2.75 µM)
MIC Enterococcus faecalis (GC 3059) (Enterococcus sp.; strain GC 3059): 4 µg/mL (≈ 2.75 µM)
MIC Enterococcus faecalis (GC 4552) (Enterococcus sp.; strain GC 4552): 4 µg/mL (≈ 2.75 µM)
MIC Enterococcus faecalis (GC 4553) (Enterococcus sp.; strain GC 4553): 4 µg/mL (≈ 2.75 µM)
MIC Enterococcus faecalis (GC 4554) (Enterococcus sp.; strain GC 4554): 4 µg/mL (≈ 2.75 µM)
MIC Enterococcus faecium (GC 4556) (Enterococcus sp.; strain GC 4556): 4 µg/mL (≈ 2.75 µM)
MIC Enterococcus faecium (GC 4557) (Enterococcus sp.; strain GC 4557): 4 µg/mL (≈ 2.75 µM)
MIC Enterococcus avium (GC 4558) (Enterococcus sp.; strain GC 4558): 4 µg/mL (≈ 2.75 µM)
MIC Enterococcus faecalis (GC 6189) (Enterococcus sp.; strain GC 6189): 4 µg/mL (≈ 2.75 µM)
MIC Streptococcus agalactiae (GC 4564) (Streptococcus sp.; Streptococcus agalactiae (GC 4564)): 0.25 µg/mL (≈ 0.172 µM)
MIC Streptococcus pneumoniae (ATCC 6301) (Streptococcus sp.; Streptococcus pneumoniae (ATCC 6301)): 0.25 µg/mL (≈ 0.172 µM)
MIC Streptococcus pneumoniae (GC 1894) (Streptococcus sp.; Streptococcus pneumoniae (GC 1894)): <0.06 µg/mL
MIC Streptococcus pneumoniae (GC 4565) (Streptococcus sp.; Streptococcus pneumoniae (GC 4565)): 0.12 µg/mL (≈ 0.0824 µM)
MIC Streptococcus pyogenes (GC 4563) (Streptococcus sp.; Streptococcus pyogenes (GC 4563)): 0.5 µg/mL (≈ 0.344 µM)
MIC Streptococcus pneumoniae (ATCC 6301) (Streptococcus sp.; strain ATCC 6301): 0.25 µg/mL (≈ 0.172 µM)
MIC Streptococcus pneumoniae (GC 1894) (Streptococcus sp.; strain GC 1894): <0.06 µg/mL
MIC Streptococcus pyogenes (GC 4563) (Streptococcus sp.; strain GC 4563): 0.5 µg/mL (≈ 0.344 µM)
MIC Streptococcus agalactiae (GC 4564) (Streptococcus sp.; strain GC 4564): 0.25 µg/mL (≈ 0.172 µM)
MIC Streptococcus pneumoniae (GC 4565) (Streptococcus sp.; strain GC 4565): 0.12 µg/mL (≈ 0.0824 µM)
Compound: CC(c1ccccc1)C1NC(=O)CNC(=O)C(CO)NC(=O)C(C(O)C2CNC(=N)N2C2OC(CO)C(O)C(O)C2O)NC(=O)C(C(O)C2CNC(=N)N2)NC(=O)C(Cc2ccc(OC3OC(CO)C(OC4OC(CO)C(O)C5OC(CC67CC8CC(CC(C8)C6)C7)OC45)C(O)C3O)cc2)NC1=O (stereo not shown) [Example 128]
MIC Staphylococcus haemolyticus (GC 4546) (Staphylococcus sp.; strain GC 4546): 2 µg/mL (≈ 1.37 µM)
